# System: Aspergillus niger
# Test: Anti-fungal efficacy of polypropylene cap, agar plate method AATCC 30 Part 3 (2017e)
# Format: cell-based
# Conditions: injection molded polypropylene cap with 2.0 wt % Microban IF1-5033-050 (0.1 wt % thiabendazole); MEA plates, up to 7 days at about 30° C.; two replicate sub-samples
# Experimental: The anti-fungal efficacy of the polypropylene cap containing thiabendazole was tested. The fungicidal activity was determined using the agar plate method AATCC 30 Part 3 (2017e). Individual plates of Malt Extract Agar (MEA) were inoculated with Aspergillus niger from primary stock cultures held at about 2° C. to about 8° C. and then incubated at about 30° C.±2° C. for up to 7 days to produce mature spores. A spore suspension was prepared from the plates in 10 mL aliquots of sterile distilled water (SDW) and filtered using glass wool. The spore suspension was adjusted using SDW so that it contained ≥10^5 spores mL^−1. Two replicate sub-samples (i.e., the polypropylene cap with thiabendazole) were placed on the surface of individual MEA plates. A 100 μL aliquot of the spore suspension of Aspergillus niger was spread over the surface of both the sub-sample and the surrounding media. The sample plates were incubated for up to 7 days at about 30° C.±2° C. […] An injection molded polypropylene cap treated with 2.0 wt % of Microban IF1-5033-050 (i.e., 0.1 wt % of thiabendazole) was tested with Aspergillus niger.
structure (smiles),measurement,value
c1ccc2[nH]c(-c3cscn3)nc2c1 [thiabendazole],fungal growth (microscopic and/or macroscopic) on sub-sample and surrounding media,No surface growth

# From patent US20250304353A1, “ANTIMICROBIAL BOTTLE WITH ANTIMICROBIAL SEAL” (Microban Products Company, priority 2017, published 2025)
